Results on 10 compounds are retold here after ChEMBL document CHEMBL1201862, “PubChem BioAssay data set” (2004).

“And” between values parts separate entries of the source, which are not always exact repeats. Equal entries are not always repeated.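 Where inhibition never reached the appropriate level, the endpoint shown equals the highest concentration tested. Otherwise, values were interpolated linearly from a five-concentration, 48-hour dose response in 96-well plates. At the GI50, growth is halved.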 The source made the active and inactive calls. Rule as the data show it: active = GI50 up to about 1.1 µM and inactive = higher. Bounds are passed on as bounds.

Some test systems named below: A498; A549; COLO 205; HL-60; IGROV-1; M14; NCI-H226; OVCAR-4; OVCAR-5; RPMI-8226; SF-268; SF-539; SK-MEL-28; SK-MEL-2; SK-OV-3; SNB-75; U-251; UACC-62; UO-31; HT-29.
Assay in all cases: NCI tumour cell line growth inhibition, 48 h

Consider `CC1OC1C(=O)P(=O)(O)O` (centres undefined), for which the GI50 in the assay on A498, with A549, with COLO 205, with HL-60, with IGROV-1 and with M14 was > 100 µM (inactive) each time. Also, the GI50 in the assay with NCI-H226, in the assay on OVCAR-4, with OVCAR-5, in the assay on RPMI-8226, in the assay on SF-268 and in the assay on SF-539 was > 100 µM (inactive) throughout. Besides, the GI50 was > 100 µM (inactive) with SK-MEL-28; > 100 µM (inactive) with SK-MEL-2; > 100 µM (inactive) in the assay on SK-OV-3; 57.9 µM (inactive) with SNB-75; > 100 µM (inactive) in the assay on U-251; > 100 µM (inactive) in the assay on UACC-62. In the assay with UO-31, the GI50 is > 100 µM (inactive).

With `CC1=C2c3ccccc3N(C(=O)/C=C/C(=O)O)[C@H]2[C@H]2C(=O)OC(=O)[C@H]2C1`, the GI50 in the assay with A498, with A549, in the assay on COLO 205, in the assay with HL-60, in the assay with HT-29 and in the assay on IGROV-1 was > 10 µM (inactive) in each case. Further, the GI50 in the assay with M14, in the assay on NCI-H226, in the assay on OVCAR-4, in the assay on OVCAR-5, with RPMI-8226 and with SF-268 was > 10 µM (inactive) each time. In addition, the GI50 with SF-539, in the assay on SK-MEL-28, in the assay with SK-MEL-2, in the assay with SK-OV-3, in the assay with SNB-75 and with U-251 was > 10 µM (inactive) throughout. The GI50 with UACC-62 and with UO-31 was > 10 µM (inactive) in each case.

For `O=C1OC(c2ccccc2)=N/C1=C\c1ccccc1`, the GI50 is > 100 µM (inactive) with A498; > 100 µM (inactive) in the assay with A549; 29.5 µM (inactive) and 18.7 µM (inactive) in the assay on HL-60; 55.5 µM (inactive) and 37.6 µM (inactive) with IGROV-1; 26.9 µM (inactive) and 30.4 µM (inactive) in the assay on M14; 24 µM (inactive) and 36.6 µM (inactive) in the assay with NCI-H226. The GI50 is 86.5 µM (inactive) and 49.7 µM (inactive) in the assay on OVCAR-4; > 100 µM (inactive) in the assay on OVCAR-5; 30.5 µM (inactive) and 22.5 µM (inactive) in the assay with RPMI-8226; 19 µM (inactive) and 21.1 µM (inactive) in the assay with SF-539; > 100 µM (inactive) and 83.9 µM (inactive) in the assay on SK-MEL-28; 17.8 µM (inactive) in the assay with SK-MEL-2. In addition, the GI50 in the assay with SK-OV-3 is > 100 µM (inactive); in the assay on SNB-75 it was 66.8 µM (inactive) and 47.5 µM (inactive); in the assay with U-251, 32.1 µM (inactive) and 35.1 µM (inactive); in the assay with UACC-62, > 100 µM (inactive); in the assay on UO-31, > 100 µM (inactive).

Take `O=C(O)C(=C\c1ccc2c(c1)OCO2)/C(=C/c1ccc2c(c1)OCO2)C(=O)O`: the GI50 in the assay with A498, with COLO 205, in the assay with HL-60, in the assay on HT-29, in the assay on IGROV-1 and with M14 was > 100 µM (inactive) throughout. Besides, the GI50 with NCI-H226, in the assay on OVCAR-4, in the assay on OVCAR-5, in the assay on RPMI-8226, with SK-MEL-28 and in the assay on SK-MEL-2 was > 100 µM (inactive) throughout. Further, the GI50 in the assay with SK-OV-3, in the assay with SNB-75, with U-251, in the assay with UACC-62 and in the assay with UO-31 was > 100 µM (inactive) each time.

`N/C(=N\O)N/N=C/c1cc2c(cc1Cl)OCO2`: the GI50 in the assay on A498 is 65.6 µM (inactive); in the assay on A549 it was 36.8 µM (inactive); with COLO 205, 33.3 µM (inactive); in the assay on HL-60 it was 13.1 µM (inactive); in the assay with HT-29, 46.1 µM (inactive); with IGROV-1, 43 µM (inactive). Also, the GI50 with NCI-H226 is 29.1 µM (inactive); in the assay on OVCAR-4, 52 µM (inactive); with OVCAR-5 it was 32.5 µM (inactive); in the assay with RPMI-8226, 24 µM (inactive); with SF-268, 25.4 µM (inactive); in the assay on SF-539, 31.8 µM (inactive). In addition, the GI50 is 64.4 µM (inactive) in the assay with SK-MEL-28; 32.1 µM (inactive) in the assay with SK-MEL-2; 26.4 µM (inactive) in the assay on SK-OV-3; 30.1 µM (inactive) with SNB-75; 34.5 µM (inactive) in the assay on U-251; > 50.4 µM (inactive) in the assay with UACC-62. Besides, the GI50 in the assay with UO-31 was 21.4 µM (inactive).

Take `CCCCCCCCCCC(C)CCCCCCC(=O)OCC(COP(=O)([O-])OCC[N+](C)(C)C)OC(=O)CCCCCCC(C)CCCCCCCCCC` (centres undefined): the GI50 in the assay on A498, with A549, in the assay on COLO 205, in the assay on HL-60, in the assay on HT-29 and in the assay on IGROV-1 was > 100 µM (inactive) each time. Further, the GI50 in the assay with M14, in the assay on NCI-H226, with OVCAR-4, in the assay on OVCAR-5, in the assay with RPMI-8226 and in the assay on SF-268 was > 100 µM (inactive) each time. Also, the GI50 with SK-MEL-28, in the assay with SK-MEL-2, in the assay with SK-OV-3, in the assay on SNB-75, in the assay with U-251 and with UACC-62 was > 100 µM (inactive) each time. In addition, the GI50 with UO-31 is > 100 µM (inactive).

For the compound `CN(c1ccc(C(=O)c2ccc(N(C)S(C)(=O)=O)cc2)cc1)S(C)(=O)=O`, the GI50 in the assay with A498 was > 100 µM (inactive); in the assay with A549 it was > 100 µM (inactive); with COLO 205, > 100 µM (inactive); in the assay with HL-60, 76.4 µM (inactive); with HT-29, > 100 µM (inactive); in the assay on NCI-H226 it was > 100 µM (inactive). The GI50 was > 100 µM (inactive) in the assay on OVCAR-4; > 100 µM (inactive) in the assay on OVCAR-5; > 100 µM (inactive) with RPMI-8226; > 100 µM (inactive) in the assay on SF-268; 54.6 µM (inactive) in the assay with SK-MEL-28; > 100 µM (inactive) in the assay on SK-MEL-2. Besides, the GI50 in the assay with SK-OV-3 is > 100 µM (inactive); with SNB-75, 83.6 µM (inactive); in the assay on U-251, > 100 µM (inactive); in the assay on UACC-62 it was > 100 µM (inactive); with UO-31, 75.7 µM (inactive).

With `Clc1ccc(OC2CCO2)cc1Cl` (centres undefined), the GI50 in the assay with A498 was 38 µM (inactive); in the assay on A549, > 100 µM (inactive); with COLO 205, 90.8 µM (inactive); in the assay with HL-60, 35.6 µM (inactive); in the assay on HT-29, 85.5 µM (inactive); with IGROV-1, > 100 µM (inactive). Further, the GI50 was > 100 µM (inactive) in the assay on M14; 52.8 µM (inactive) in the assay with NCI-H226; 60 µM (inactive) with OVCAR-4; 83.2 µM (inactive) in the assay on OVCAR-5; 43.5 µM (inactive) in the assay on RPMI-8226; 78.2 µM (inactive) in the assay on SF-268. Further, the GI50 with SF-539 was > 100 µM (inactive); in the assay with SK-MEL-28 it was > 100 µM (inactive); with SK-OV-3, > 100 µM (inactive); with SNB-75 it was > 100 µM (inactive); in the assay on U-251 it was 88.3 µM (inactive); in the assay on UACC-62, 72.6 µM (inactive). The GI50 in the assay on UO-31 is 62.4 µM (inactive).

On to `N#CCCN(CCN(CCC#N)C(=O)Nc1ccccc1)C(=O)Nc1ccccc1`, for which the GI50 in the assay on A498 is > 100 µM (inactive); in the assay on A549, 80.2 µM (inactive); with COLO 205 it was > 100 µM (inactive); in the assay with HL-60, > 100 µM (inactive); in the assay on HT-29, > 100 µM (inactive); with IGROV-1 it was 68.9 µM (inactive). The GI50 in the assay with M14 is > 100 µM (inactive); in the assay with NCI-H226, > 100 µM (inactive); in the assay on OVCAR-5, > 100 µM (inactive); with RPMI-8226, > 100 µM (inactive); with SF-268, 28.5 µM (inactive); in the assay with SK-MEL-28, > 100 µM (inactive). Moreover, the GI50 in the assay on SK-MEL-2 is > 100 µM (inactive); with SK-OV-3, 28.6 µM (inactive); in the assay on SNB-75 it was 19.5 µM (inactive); in the assay on U-251, 39.6 µM (inactive); in the assay with UACC-62, > 100 µM (inactive); in the assay on UO-31, 85.7 µM (inactive).

In the case of `Cc1c2c(cc3c1[nH]c1ccccc13)C(c1ccc(Cl)cc1)=NCC2`, the GI50 in the assay with A498 is 0.124 µM (active); in the assay with A549 it was 0.665 µM (active); in the assay with COLO 205 it was 0.41 µM (active); in the assay on HL-60 it was 0.288 µM (active); in the assay with HT-29, 0.203 µM (active); in the assay with IGROV-1, 0.944 µM (active). Besides, the GI50 with NCI-H226 is 1.3 µM (inactive); in the assay with OVCAR-4 it was 0.718 µM (active); in the assay with OVCAR-5, 7.78 µM (inactive); in the assay with RPMI-8226, 0.497 µM (active); with SF-268, 0.598 µM (active); in the assay with SF-539 it was 0.667 µM (active). The GI50 is 1.45 µM (inactive) with SK-MEL-28; 0.711 µM (active) in the assay with SK-MEL-2; 2.67 µM (inactive) with SK-OV-3; 0.217 µM (active) in the assay with SNB-75; 0.608 µM (active) with U-251; 0.452 µM (active) in the assay on UACC-62. The GI50 with UO-31 was 0.644 µM (active).
